Target: human NaV1.8 ion channel (Homo sapiens (Human), UniProt Q9Y5Y9)
Experiment: Compound inhibition activity on human NaV1.8 ion channel in HEK293 cells (whole-cell patch clamp)
Type: cell-based
Details: 100 nm concentration; HEK293 cells, resting protocol
Experimental: Test Case 1: Compound Inhibition Activity on Human NaV1.8 Ion Channel in HEK293 Cells
The final concentrations of the test compounds are prepared on the same day and then dissolved in extracellular solution. […] The intracellular solution (mM) contains: Aspartic acid, 140; MgCl2, 2; EGTA 11; HEPES, 10; pH 7.2 (CsOH titration). All test solutions contain 1 μM TTX.
The test solution are stored at a concentration of 3 mM in dimethyl sulfoxide (DMSO). The solutions will be dissolved in extracellular solution on the day of testing and prepared to the required concentration.
All experiments were performed at room temperature. Each cell itself is taken as the corresponding control.
At least one cell is tested per concentration.
HEK293 cell steady expressing NaV1.8 ion channel.
The intracellular fluid (mM) contains: Aspartic acid, 140; MgCl2, 2; EGTA 11; HEPES, 10; pH 7.2 (CsOH titration). […] Electrodes are drawn with PC-10 (Narishige, Japan). Recording is performed with whole-cell diaphragm clamp.
The cells are clamped at −80 mV and then depolarized to 10 mV with a sustained 10 ms square wave to give a Nav1.8 current. This procedure is repeated every 5 seconds.

Chain of human NaV1.8 ion channel (Q9Y5Y9 whole entry): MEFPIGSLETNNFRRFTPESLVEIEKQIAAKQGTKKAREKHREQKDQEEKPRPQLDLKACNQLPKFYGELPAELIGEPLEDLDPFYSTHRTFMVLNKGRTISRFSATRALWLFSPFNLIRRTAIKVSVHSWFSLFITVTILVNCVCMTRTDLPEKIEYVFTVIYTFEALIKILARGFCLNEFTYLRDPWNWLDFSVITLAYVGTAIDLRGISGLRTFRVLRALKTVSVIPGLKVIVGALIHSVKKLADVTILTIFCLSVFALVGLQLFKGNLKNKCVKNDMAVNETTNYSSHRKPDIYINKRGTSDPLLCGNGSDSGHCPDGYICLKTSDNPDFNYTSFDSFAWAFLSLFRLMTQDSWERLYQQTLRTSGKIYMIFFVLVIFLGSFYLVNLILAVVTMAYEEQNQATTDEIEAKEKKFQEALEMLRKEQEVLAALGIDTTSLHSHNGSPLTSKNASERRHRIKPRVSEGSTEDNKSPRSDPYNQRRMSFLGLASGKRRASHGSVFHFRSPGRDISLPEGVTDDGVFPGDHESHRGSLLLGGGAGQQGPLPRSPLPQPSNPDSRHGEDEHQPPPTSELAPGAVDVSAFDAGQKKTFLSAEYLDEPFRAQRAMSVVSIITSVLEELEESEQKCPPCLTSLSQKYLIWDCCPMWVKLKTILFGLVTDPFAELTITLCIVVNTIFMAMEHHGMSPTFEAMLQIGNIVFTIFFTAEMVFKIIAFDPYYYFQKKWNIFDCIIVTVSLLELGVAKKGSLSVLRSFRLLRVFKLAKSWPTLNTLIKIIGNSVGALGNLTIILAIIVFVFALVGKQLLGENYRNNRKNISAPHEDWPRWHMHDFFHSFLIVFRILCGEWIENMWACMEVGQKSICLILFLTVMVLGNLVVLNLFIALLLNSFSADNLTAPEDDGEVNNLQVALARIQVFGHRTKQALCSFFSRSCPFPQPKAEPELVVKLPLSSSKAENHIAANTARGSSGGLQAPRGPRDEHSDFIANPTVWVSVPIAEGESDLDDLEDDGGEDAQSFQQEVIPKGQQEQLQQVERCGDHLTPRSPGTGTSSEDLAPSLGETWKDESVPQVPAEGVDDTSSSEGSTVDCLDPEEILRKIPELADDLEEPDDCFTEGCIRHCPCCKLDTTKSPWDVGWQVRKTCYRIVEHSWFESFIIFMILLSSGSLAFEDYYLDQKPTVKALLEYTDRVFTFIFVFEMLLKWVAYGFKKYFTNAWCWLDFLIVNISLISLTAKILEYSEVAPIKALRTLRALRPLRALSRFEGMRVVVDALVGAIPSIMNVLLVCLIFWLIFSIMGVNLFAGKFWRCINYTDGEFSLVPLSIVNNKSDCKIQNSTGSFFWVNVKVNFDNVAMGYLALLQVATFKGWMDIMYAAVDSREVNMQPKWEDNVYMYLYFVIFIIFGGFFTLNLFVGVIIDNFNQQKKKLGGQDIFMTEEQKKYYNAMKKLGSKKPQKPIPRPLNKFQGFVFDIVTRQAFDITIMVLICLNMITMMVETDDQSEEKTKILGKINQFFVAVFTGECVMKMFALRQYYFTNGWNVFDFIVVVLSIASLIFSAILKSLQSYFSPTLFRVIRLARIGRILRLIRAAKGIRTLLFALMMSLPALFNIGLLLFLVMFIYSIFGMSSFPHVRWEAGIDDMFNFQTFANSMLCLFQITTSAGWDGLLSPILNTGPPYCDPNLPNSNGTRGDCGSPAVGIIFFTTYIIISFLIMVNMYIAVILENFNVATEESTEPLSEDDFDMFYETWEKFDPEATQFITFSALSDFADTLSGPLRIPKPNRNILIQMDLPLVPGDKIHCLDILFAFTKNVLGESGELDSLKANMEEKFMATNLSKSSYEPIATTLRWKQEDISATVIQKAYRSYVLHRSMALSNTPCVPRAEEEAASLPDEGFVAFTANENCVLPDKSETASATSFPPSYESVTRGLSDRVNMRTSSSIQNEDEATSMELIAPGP

SMILES	Inhibition ratio of Nav1.8 (Activity of inhibition)
Cc1cc(F)ccc1Oc1cc(C2CC2)c(C(F)(F)F)cc1C(=O)Nc1ccc(F)c(C(N)CCO)c1 (stereo not drawn) [Example 3, N-(3-(1-Amino-3-hydroxypropyl)-4-fluorophenyl)-4-cyclopropyl-2-(4-fluoro-2-methylphenoxy)-5-(trifluoromethyl) benzamide]	A (A >= 80)
Cc1cc(F)ccc1Oc1ccc(C(F)(F)F)cc1C(=O)Nc1ccc(F)c(CC(N)C(N)=O)c1 (stereo not drawn) [Example 17, N-(3-(2,3-Diamino-3-oxopropyl)-4-fluorophenyl)-2-(4-fluoro-2-methylphenoxy)-5-(trifluoromethyl) benzamide]	D (D < 20)

Same assay, conditions: 100 nm concentration; HEK293 cells, resting protocol; read-out: Inhibition ratio of Nav1.8 (Activity of inhibition)

inhibition at 0.1 µM [%]	SMILES
50 to 80	CC(=O)NC(CCO)c1cc(NC(=O)c2cc(C(F)(F)F)c(C3CC3)cc2Oc2ccc(F)cc2C)ccc1F (stereo not drawn) [Example 6, N-(3-(1-Acetylamino-3-hydroxypropyl)-4-fluorophenyl)-4-cyclopropyl-2-(4-fluoro-2-methylphenoxy)-5-(trifluoromethyl) benzamide]
> 80	Cc1cc(F)ccc1Oc1cc(C2CC2)c(C(F)(F)F)cc1C(=O)Nc1ccc(F)c(C(CCO)N(C)C)c1 (stereo not drawn) [Example 8, 4-Cyclopropyl-N-(3-(1-(dimethylamino)-3-hydroxypropyl)-4-fluorophenyl)-2-(4-fluoro-2-methylphenoxy)-5-(trifluoromethyl) benzamide]
50 to 80	Cc1cc(F)ccc1Oc1cc(C2CC2)c(C(F)(F)F)cc1C(=O)Nc1ccc(F)c(C(C)CN)c1 (stereo not drawn) [Example 30, N-(3-(1-aminopropyl-2-yl)-4-fluorophenyl)-4-cyclopropyl-2-(4-fluoro-2-methylphenoxy)-5-(trifluoromethyl) benzamide]

Same assay, conditions: 100 nm concentration; HEK293 cells, resting protocol; read-out: Inhibition ratio of compounds against Nav1.8 (Activity of inhibition)

SMILES	inhibition at 0.1 µM [%]
Cc1cc(F)ccc1Oc1cc(C2CC2)c(C(F)(F)F)cc1C(=O)Nc1ccc(F)c(C(N)CC(C)N)c1 (stereo not drawn) [Example 46, 4-Cyclopropyl-N-(3-(1,3-diaminobutyl)-4-fluorophenyl)-2-(4-fluoro-2-methylphenoxy)-5-(trifluoromethyl) benzamide]	> 80
Cc1cc(F)ccc1Oc1cc(C2CC2)c(C(F)(F)F)cc1C(=O)Nc1ccc(F)c(OC2CC(N)C2)c1 (stereo not drawn) [Example 58, N-(3-(3-aminocyclobutoxy)-4-fluorophenyl)-4-cyclopropyl-2-(4-fluoro-2-methylphenoxy)-5-(trifluoromethyl) benzamide]	50 to 80

Results, then the compound that gave them:

inhibition at 0.1 µM [%]	SMILES
50 to 80	Cc1cc(F)ccc1Oc1cc(C2CC2)c(C(F)(F)F)cc1C(=O)Nc1ccc(F)c(N)c1 [Example 52, N-(3-Amino-4-fluorophenyl)-4-cyclopropyl-2-(4-fluoro-2-methylphenoxy)-5-(trifluoromethyl) benzamide]
50 to 80	Cc1cc(F)ccc1Oc1cc(C2CC2)c(C(F)(F)F)cc1C(=O)Nc1ccc(F)c(OCC(=O)NC2(C(F)(F)F)CC2)c1 [Example 89]
> 80	Cc1cc(F)ccc1Oc1cc(C2CC2)c(C(F)(F)F)cc1C(=O)Nc1ccc(F)c(OCC(O)CN)c1 (stereo not drawn) [Example 57, N-(3-(3-amino-2-hydroxypropoxy)-4-fluorophenyl)-4-cyclopropyl-2-(4-fluoro-2-methylphenoxy)-5-(trifluoromethyl) benzamide]
50 to 80	Cc1cc(F)ccc1Oc1cc(C2CC2)c(C(F)(F)F)cc1C(=O)Nc1ccc(F)c(OCC(O)CNCC(F)(F)F)c1 (stereo not drawn) [Example 87]
50 to 80	Cc1cc(F)ccc1Oc1cc(C2CC2)c(C(F)(F)F)cc1C(=O)Nc1ccc(F)c(OCC2CNCCO2)c1 (stereo not drawn) [Example 80]
50 to 80	Cc1cc(F)ccc1Oc1cc(C2CC2)c(C(F)(F)F)cc1C(=O)Nc1ccc(F)c(OCC(O)CNc2ccn[nH]2)c1 (stereo not drawn) [Example 99]
> 80	Cc1cc(F)ccc1Oc1cc(C2CC2)c(C(F)(F)F)cc1C(=O)Nc1ccc(F)c(OCC(O)CNC2CC2)c1 (stereo not drawn) [Example 78]
50 to 80	Cc1cc(F)ccc1Oc1cc(C2CC2)c(C(F)(F)F)cc1C(=O)Nc1cnnc(OCC(O)CO)c1 (stereo not drawn) [Example 102]
